Experiment [1] concerns the target T1, human P2Y12 (Homo sapiens, UniProt Q9H244). As to the kind of experiment: ERK activation (phosphorylation immunoblot) in P2Y12-expressing CHO cells. Particulars: for ERK activation by agonist: stimulated 15 min. The arrangement: polyhistidine (HIS) tag (C); expressed in transfected cells. Format: cell-based. The protocol: FIG. 1. Activation by recombinant human P2Y12 receptors in response to cys-LTs. The human P2Y12 receptor cDNA was cloned in forward and reverse orientation into the expression vector pEF1/His B and transfected into CHO cells using Fugene HD reagent. Stably-expressing clones were selected using G418 (1000 μg/ml), and expression of the construct was confirmed by cytofluorographic detection of the HIS tag. 1A. […] Results in second experiment were identical. 1B. SDS-PAGE immunoblots showing phosphorylation of ERK2 by CHO cells stably expressing human P2Y12 receptors in reverse (negative control) or forward orientations. […] The blots were stripped and re-probed with an antibody (Ab) recognizing total ERK1 and ERK2. […] 1C. Effect of the selective P2Y12 receptor antagonist 2-MesAMP (MeS) on ligand-induced ERK phosphorylation. P2Y12 receptor expressing CHO cells were stimulated with the same doses of agonists used in 1A, in the absence or presence of 2-MesAMP (100 μM). 1D. Comparison of P2Y12 receptor-mediated responses to cys-LTs with those of recombinant human CysLT1R and CysLT2R expressed in CHO cells, and the effect of the CysLT1R antagonist MK571 (1 μM). Data in 1B-1D are from individual experiments that were repeated at least 3 times with similar results.
FIG. 8. […] Cells were stably transfected with the human P2Y12 construct and stimulated for 15 minutes with the indicated ligand concentrations. […] Results in a second experiment were similar.
(§1) A P2Y12 receptor cDNA was amplified by reverse transcriptase polymerase chain reaction (RT-PCR) from RNA extracted from primary hMCs and cloned into a mammalian expression vector. Expression was confirmed by detection of a histidine (HIS) tag by flow cytometry. Another cohort of CHO cells were stably transfected with a P2Y12 receptor construct in reverse orientation as a negative control. […] The cys-LT-induced ERK activation blocked by pre-treatment of the cells with pertussis toxin (PTX), was attenuated by treatment with the P2Y12 receptor-selective antagonist 2-methylthioadenosine monophosphate (2-MesAMP) (FIG. 1C), and was resistant to MK571, an inhibitor that blocks CysLT1R and some P2Y receptors (Mamedova, L., et al. 2005. Biochem. Pharmacol. 71:115-125). […] These responses were resistant to PTX and 2-MesAMP, and susceptible to MK571 in the case of the CysLT1R transfectants.
(§2) A human P2Y12 receptor cDNA was amplified by 30 cycles of PCR from reverse-transcribed total RNA extracted from primary cord blood hMCs. The primer sequences were 5′-[…] (SEQ ID NO: 1) and 3′-[…] (SEQ ID NO: 2). The fragment was cloned into a TA vector (INVITROGEN™). After verifying the nucleotide sequence, the fragment was subcloned into the multiple cloning site of the expression vector pEF1/His B, encoding a C-terminal polyhistidine (HIS) tag. […]
(In general: Immunoblotting shows a protein as a band on a membrane.)

The subject of another experiment is naïve BALB/c mice. In words: Intranasal cys-LT in naïve BALB/c mice, lung histology. Format: in vivo, mouse. Particulars: 2 nmol, three successive days. The protocol: Thus, it was sought to determine whether either cys-LT amplified pulmonary […], BALB/c mice received inhalation challenges on three consecutive days with low-dose OVA (0.1%) for 30 minutes. Twelve hours before each challenge, the mice received intranasal LTD4, LTE4, or a buffer control. A cohort of mice treated with 1% OVA were maintained as a positive control. The mice were then euthanized, their BAL fluid collected, and their lungs examined histologically for evidence of inflammation and goblet cell metaplasia, a dominant pathologic signature of Th2-polarized mucosal inflammation. […] The extent of the cellularity and goblet cell responses of the LTE4-treated animals approached the levels of these parameters in the mice treated with 1% OVA.
15 bronchovascular bundles of each mouse were evaluated.

Experiment [2] addresses T1, human P2Y12. In words: Binding of cys-LTs to membranes of CHO cells stably expressing the human P2Y12 receptor. The arrangement: polyhistidine (HIS) tag (C); expressed in transfected cells.
Excerpt: as §1
as §2, with “tag. A plasmid expressing the P2Y12 receptor construct in the forward orientation were transfected into CHO cells using Fugene HD reagent according to manufacturer's protocol. A construct in the reverse sequence was transfected in parallel as a negative control.” for “tag.”
[^3H] […] Protein concentration was determined using Biorad Protein Assay Kit. […] The residual membrane-associated [^3H] on the filter was determined in 2 ml scintillation fluid by beta counter (Perkin Elmer). For [^3H]ADP, specific binding was determined by subtracting the amount of [^3H] bound in the presence of 100 μM 2-MesADP from total binding.

T1 sequence (Q9H244 whole entry): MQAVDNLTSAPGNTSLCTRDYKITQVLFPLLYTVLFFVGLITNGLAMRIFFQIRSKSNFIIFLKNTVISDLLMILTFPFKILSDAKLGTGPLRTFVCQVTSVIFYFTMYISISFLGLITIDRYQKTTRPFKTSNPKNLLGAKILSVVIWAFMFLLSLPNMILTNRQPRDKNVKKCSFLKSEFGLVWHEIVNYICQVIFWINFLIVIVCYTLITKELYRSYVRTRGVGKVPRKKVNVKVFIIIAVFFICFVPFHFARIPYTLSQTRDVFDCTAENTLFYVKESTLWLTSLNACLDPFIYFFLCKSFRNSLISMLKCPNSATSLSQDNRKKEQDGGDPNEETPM

Consider `CN(C)C(=O)CCSC(SCCC(=O)O)c1cccc(/C=C/c2ccc3ccc(Cl)cc3n2)c1` (stereo not shown) [MK571], for which the “effect on cys-LT-induced ERK activation” value on human P2Y12 [1] (2-MesAMP 100 μM, MK571 1 μM) was “resistant”.

Take `CCCCC/C=C\C\C=C/C=C/C=C/[C@@H](SC[C@H](N)C(=O)NCC(=O)O)[C@@H](O)CCCC(=O)O` [LTD4]: the “lung histology (cellular influx, goblet cell metaplasia)” value in the experiment on naïve BALB/c mice is “no evidence of cellular influx or goblet cell metaplasia”. For the same molecule, the “binding to membranes of the transfectants” value at human P2Y12 [2] was “also bound”. Also, the “ERK activation by agonist” value at human P2Y12 [1] is “robust, dose-dependent ERK activation”.

Take `CCCCC/C=C\C\C=C/C=C/C=C/[C@@H](SC[C@H](N)C(=O)O)[C@@H](O)CCCC(=O)O` [LTE4]: the “lung histology (cellular influx, goblet cell metaplasia)” value in the experiment on naïve BALB/c mice was “no evidence of cellular influx or goblet cell metaplasia”. Besides, at human P2Y12 [2] (membranes of P2Y12 CHO transfectants, read-out: affinity constant), the Kd is 10 nM. The “ERK activation by agonist” value at human P2Y12 [1] is recorded as “robust, dose-dependent ERK activation”.
